Publication PMC12832182 (Science (New York, N.Y.), 2025)

Target: T1, non-Cathepsin L-processed, but self-cleaved enzyme (LyLAP) (Homo sapiens, UniProt Q6P4A8)
T1 sequence (Q6P4A8 39-227): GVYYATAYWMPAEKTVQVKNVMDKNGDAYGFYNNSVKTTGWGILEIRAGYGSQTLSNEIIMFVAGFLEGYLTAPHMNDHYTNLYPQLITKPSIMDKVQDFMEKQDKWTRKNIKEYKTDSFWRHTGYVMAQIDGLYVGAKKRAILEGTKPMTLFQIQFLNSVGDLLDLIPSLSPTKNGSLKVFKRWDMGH
T1 sequence (Q6P4A8 228-553): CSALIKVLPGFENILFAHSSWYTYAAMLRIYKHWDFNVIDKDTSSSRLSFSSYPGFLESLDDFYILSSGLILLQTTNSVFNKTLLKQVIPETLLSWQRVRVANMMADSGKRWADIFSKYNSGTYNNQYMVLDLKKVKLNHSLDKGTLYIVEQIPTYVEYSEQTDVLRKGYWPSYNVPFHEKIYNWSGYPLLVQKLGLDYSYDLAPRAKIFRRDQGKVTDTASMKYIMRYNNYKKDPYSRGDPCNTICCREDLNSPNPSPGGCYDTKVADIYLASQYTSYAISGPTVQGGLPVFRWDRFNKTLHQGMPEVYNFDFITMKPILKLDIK
Assay: fluorogenic AMC release
Type: biochemical
Settings: lysosomal pH buffer pH 4.5, 37°C; without cathepsin L preactivation

Cc1cc(=O)oc2cc(NC(=O)[C@@H](N)CC(C)C)ccc12 [Leu-AMC, L-Leucine-7-amido-4-methylcoumarin]
fluorogenic AMC release: increased catalysis toward single amino acid substrates and, more substantially, toward tripeptide substrates
